Measured values from US20250243186A1, “PIPERIDINYL INDOLE DERIVATIVES, PREPARATION METHODS AND MEDICINAL USES THEREOF” (HANSOH BIO LLC, priority 2021, published 2025).
Like-named read-outs stand apart in the source and are kept apart here.

Key:
[1] = Ocular pharmacokinetic studies in rats; type: in vivo, brown Norway rats; conditions: 2 mpk PO
Procedure: Three-month-old brown Norway rats were administered the Example compound via oral gavage as a suspension in 2 equiv 1 N HCl+30% PEG300+50% (20% Cremophor EL in water). Ocular tissues from both eyes and plasma were collected from rats per time point at 0.25, 0.5, 1, 6, and 24 h after administration. The ocular tissues collected were the retina and the posterior eye cup (RPE/choroid and posterior sclera). The tissues were diluted with phosphate buffered saline containing 10% acetonitrile and homogenized, centrifuged prior to analyses. The concentrations of the test article were measured in plasma and supernatants of ocular homogenates by HPLC-MS/MS in four individual retinas, four individual posterior eye cups, and two individual plasma samples at each time point. Chromatographic separation was carried out on Waters BEH C18 Column (2.1×50 mm, 1.7 μm) column (MAC-MOD Analytical, Chadds Ford, PA), using a gradient elution method with water and acetonitrile, both containing 0.025% formic acid—1 mM NH4OAc. Mass spectrometric measurements in positive electrospray ionization were directed at quantifying the mass transition with [M+H]^+ as the precursor ion on API6500, triple quadruple mass spectrometer (Sciex, Framingham, MA). The relevant pharmacokinetic parameters were estimated using noncompartmental methods using WinNonlin (Enterprise, version 8.2).

[2] = target: T1, Recombinant human Factor B catalytic domain (Homo sapiens (Human), UniProt P00751); assay: Factor B binding assay by TR-FRET; conditions: 10 nM his-tagged Factor B catalytic domain, 100 nM tracer, 1 h
[3] = target: T1, Recombinant human Factor B catalytic domain; assay: Target residence time of Factor B inhibitors by surface plasmon resonance (SPR); conditions: for Residence time: 1/koff; for t1/2: binding half-life ln2/koff
[4] = target: T1, Recombinant human Factor B catalytic domain; assay: biochemical
[5] = system: alternative complement pathway (AP); assay: Ex vivo assessment of plasma PD inhibition (AP MAC deposition ELISA in rat serum); set-up: species or system Sprague Dawley rats; conditions: 2 mg/kg oral
AP complement activation = assay: In vivo assessment of mouse AP complement functional activity (LPS-induced plasma C3b/iC3b/C3c ELISA); set-up: species or system C57BL/6 mice; conditions: at 20 h, 20 mg/kg oral
Procedure: Female C57BL/6 mice were administered with Example 57 formulation (20 mg/kg in 0.5% (w/v) methyl cellulose, 0.5% (v/v) Tween 80) by oral gavage 20 h before the end of study. To activate complement pathway, lipopolysaccharide (LPS) from Salmonella typhimurium (Sigma) was injected i.p. (2.5 mg/kg) 7.5 h prior to the end of the study. Control mice were given i.p. injection of saline solution and dosed with vehicle by oral gavage. Plasma samples were collected from mice at the end of the study. AP complement activation was assessed by measuring plasma C3 cleavage products C3b/iC3b/C3c with ELISA using rat anti-mouse C3b/iC3b/C3c monoclonal antibody (clone 2/11, Hycult biotech, 0.1ug/well) and goat anti-Rat IgG (whole molecule)-Peroxidase (Sigma) diluted in TBST (TBS/0.05% Tween20).

[6] = read-out: Factor B TR-FRET IC50

T1 sequence (P00751 470-764): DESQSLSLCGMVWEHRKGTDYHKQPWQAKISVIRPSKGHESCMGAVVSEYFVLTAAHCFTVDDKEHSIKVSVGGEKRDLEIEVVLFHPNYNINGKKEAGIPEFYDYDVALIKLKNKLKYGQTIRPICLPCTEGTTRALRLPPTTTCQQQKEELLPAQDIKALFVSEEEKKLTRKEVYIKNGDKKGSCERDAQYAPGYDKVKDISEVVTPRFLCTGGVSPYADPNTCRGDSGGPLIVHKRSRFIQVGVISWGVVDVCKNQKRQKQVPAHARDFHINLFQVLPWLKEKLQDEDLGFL

## COc1cc(C)c2[nH]ccc2c1CN1CCC2(CC1c1ccc(C(=O)O)cc1)CC2(F)F (single isomer, unassigned) [8 (Isomer 1), 4-(1,1-difluoro-6-((5-methoxy-7-methyl-1H-indol-4-yl)methyl)-6-azaspiro[2.5]octan-5-yl)benzoic acid]
[1]; Brown Norway, rat, 2 mg/kg, plasma, read-out: Plasma AUC0-last
  AUC(0-t): 10.8 µM·h
[1]; Brown Norway, rat, 2 mg/kg, retina, read-out: Retina AUC0-last
  AUC(0-t): 2.23 µM·h
[1]; Brown Norway, rat, in vivo, 2 mg/kg, read-out: T½ (converted)
  half-life: 6.4 h
[2]; Factor B TR-FRET IC50 (nM)
  IC50: 7 nM

## COc1cc(C)c2[nH]ccc2c1CN1CCC2(CC1c1ccc(C(=O)O)cc1)CC2F (single isomer, unassigned) [27 (Isomer 1), 4-(1-fluoro-6-((5-methoxy-7-methyl-1H-indol-4-yl)methyl)-6-azaspiro[2.5]octan-5-yl)benzoic acid]
[3]
  Residence time: 191.4 s
  t1/2: 0.0367 h
[4]
  Kd: 6.25 nM
[2]; Factor B TR-FRET IC50 (nM)
  IC50: 5 nM

## COc1cc(C)c2[nH]ccc2c1CN1CCC2(CC1c1ccc(C(=O)O)cc1)CC2F (single isomer, unassigned) [27 (Isomer 2), 4-(1-fluoro-6-((5-methoxy-7-methyl-1H-indol-4-yl)methyl)-6-azaspiro[2.5]octan-5-yl)benzoic acid]
[3]
  Residence time: 308.9 s
  t1/2: 0.0592 h
[4]
  Kd: 4.25 nM
[2]; Factor B TR-FRET IC50 (nM)
  IC50: 5.3 nM

## COc1cc(C)c2[nH]ccc2c1CN1CC2CC3(CC3)CC2C1c1ccc(C(=O)O)cc1 (single isomer, unassigned) [29 (Isomer 1), 4-(2-((5-methoxy-7-methyl-1H-indol-4-yl)methyl)hexahydro-1H-spiro[cyclopenta[c]pyrrole-5,1′-cyclopropan]-1-yl)benzoic acid]
[3]
  Residence time: 236.4 s
  t1/2: 0.0453 h
[4]
  Kd: 7.03 nM
[2]; Factor B TR-FRET IC50 (nM)
  IC50: 7.5 nM

## COc1cc(C)c2[nH]ccc2c1CN1CCC2(C[C@H]1c1ccc(-c3noc(=O)[nH]3)cc1)CC(F)(F)C2 (single isomer, unassigned) [47 (Isomer 1)]
[3]
  Residence time: 4130 s
  t1/2: 0.795 h
[4]
  Kd: 0.53 nM
[2]; Factor B TR-FRET IC50 (nM)
  IC50: < 2 nM

## COc1cc(C)c2[nH]ccc2c1CN1CC2CN(CC(F)F)CC2C1c1ccc(C(=O)O)cc1 (stereo not shown) [Example 23, 4-(5-(2,2-difluoroethyl)-2-((5-methoxy-7-methyl-1H-indol-4-yl)methyl)octahydropyrrolo[3,4-c]pyrrol-1-yl)benzoic acid]
[2]; [6]
  IC50: 143 nM

## COc1cc(C)c2[nH]ccc2c1CN1CCCCC1c1ccc(C(=O)O)c(C(F)F)c1 (stereo not shown) [Example 25, 2-(difluoromethyl)-4-(1-((5-methoxy-7-methyl-1H-indol-4-yl)methyl)piperidin-2-yl)benzoic acid]
[2]; [6]
  IC50: 322 nM

## COc1cc(C)c2[nH]ccc2c1CN1CC2(CCOCC2)CC1c1ccc(C(=O)O)cc1 (stereo not shown) [Example 30, 4-(2-((5-methoxy-7-methyl-1H-indol-4-yl)methyl)-8-oxa-2-azaspiro[4.5]decan-3-yl)benzoic acid]
[2]; Factor B TR-FRET IC50 (nM)
  IC50: 132 nM

## COc1cc(C)c2[nH]ccc2c1CN1CCC2(CCC(F)(F)C2)CC1c1ccc(C(=O)O)cc1 (stereo not shown) [Example 41, 4-(2,2-difluoro-8-((5-methoxy-7-methyl-1H-indol-4-yl)methyl)-8-azaspiro[4.5]decan-7-yl)benzoic acid]
[2]; Factor B TR-FRET IC50 (nM)
  IC50: 20.1 nM

## Cc1cc(C2CC2)c(CN2CCC3(C[C@H]2c2ccc(C(=O)O)cc2)CC(F)(F)C3)c2cc[nH]c12 [Example 53]
[3]
  t1/2: 1.214 h
[2]; [6]
  IC50: < 2 nM

## COc1cc(C)c2[nH]ccc2c1CN1CCC2(C[C@H]1c1ccc(C(=O)O)cc1C)CC(F)(F)C2 [Example 57]
[3]
  t1/2: 1.188 h
[1]
  T½: 22.2 h
[1]; plasma
  Plasma AUC0-last (nM · h): 12,668 nM · h
[1]; retina
  Retina AUC0-last: 0.7964 µM·h
[5]; at 24 h
  inhibition in rat ex-vivo PD assay: sustained inhibition
AP complement activation
  inhibition in mouse in-vivo PD assay: sustained inhibition
[2]; [6]
  IC50: < 2 nM

## COc1cc(C)c2[nH]ccc2c1CN1CCC2(C[C@H]1c1ccc(C(=O)O)c(C)c1)CC(F)(F)C2 [Example 62]
[2]; [6]
  IC50: < 2 nM

## COc1cc(C)c2[nH]ccc2c1CN1CCC2(C[C@H]1c1ccc(C(=O)O)c(F)c1)CC(F)(F)C2 [Example 64]
[2]; [6]
  IC50: < 2 nM

## CCc1cc(C)c2[nH]ccc2c1CN1CCC2(C[C@H]1c1ccc(C(=O)O)cc1)CC(F)(F)C2 [Example 80]
[2]; [6]
  IC50: < 2 nM

## C=C(F)c1cc(C)c2[nH]ccc2c1CN1CCC2(C[C@H]1c1ccc(C(=O)O)cc1)CC(F)(F)C2 [Example 81]
[2]; [6]
  IC50: 47.3 nM

## [2H]C([2H])([2H])Oc1cc(C)c2[nH]ccc2c1CN1CCC2(C[C@H]1c1ccc(C(=O)O)cc1)CC(F)(F)C2 [Example 82]
[2]; [6]
  IC50: < 2 nM

## Cc1cc(C(=O)O)ccc1[C@@H]1CC2(CCN1Cc1c(C3CC3)cc(C)c3[nH]ccc13)CC(F)(F)C2 [Example 83]
[2]; [6]
  IC50: < 2 nM

## COc1cc(C)c2[nH]ccc2c1CN1CCC2(C[C@H]1c1ccc3c(C(=O)O)cccc3c1)CC(F)(F)C2 [Example 84]
[2]; [6]
  IC50: 3.1 nM

## COc1cc(C)c2[nH]ccc2c1CN1CCC2(C[C@H]1c1ccc(C(=O)O)c3ccccc13)CC(F)(F)C2 [Example 85]
[2]; [6]
  IC50: < 2 nM

## CCOc1cc(C)c2[nH]ccc2c1CN1CCC2(C[C@H]1c1ccc(C(=O)O)cc1)CC(F)(F)C2 [Example 86]
[2]; [6]
  IC50: 2.1 nM

## CCO[C@H]1CCN(Cc2c(OC)cc(C)c3[nH]ccc23)[C@H](c2ccc(C(=O)O)cc2)C1 [Iptacopan, reference compound]
[5]; Rattus norvegicus, rats, 24 h post dose, 50% serum, read-out: Serum PD inhibition (%) at 24 h (2 mpk)
  inhibition at 2 mg/kg: -3%
